pIC50: −log10 of the molar value.
Biological target: V1 receptor (Rattus norvegicus, UniProt P30560)
Assay: biochemical
Format: binding
Conditions: not given

V1 receptor, sequence (P30560 whole entry): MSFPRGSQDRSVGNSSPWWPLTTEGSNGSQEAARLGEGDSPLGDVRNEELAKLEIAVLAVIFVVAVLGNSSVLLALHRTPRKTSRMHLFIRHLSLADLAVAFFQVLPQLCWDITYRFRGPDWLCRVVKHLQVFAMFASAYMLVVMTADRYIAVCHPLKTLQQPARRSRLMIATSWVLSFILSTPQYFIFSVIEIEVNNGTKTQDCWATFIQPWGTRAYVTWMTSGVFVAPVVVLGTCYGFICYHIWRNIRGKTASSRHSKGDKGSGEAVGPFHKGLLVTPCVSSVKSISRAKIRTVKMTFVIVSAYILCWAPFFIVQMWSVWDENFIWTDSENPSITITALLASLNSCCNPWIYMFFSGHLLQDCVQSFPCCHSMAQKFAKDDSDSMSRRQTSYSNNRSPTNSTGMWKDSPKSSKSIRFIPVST

Row | SMILES | pIC50
1 | NC(=O)CCCCCCCOc1ccc(C(=O)N2CCC(N3C(=O)CCc4ccccc43)CC2)cc1 [Example 15, 1-{1-[4-(7-Carbamoylheptyloxy)benzoyl]-4-piperidinyl}-3,4-dihydrocarbostyril] | 6.59
2 | COC(=O)[C@H](CCCCN)NC(=O)CCCCCOc1ccc(C(=O)N2CCC(N3C(=O)CCc4ccccc43)CC2)cc1 [Example 166, 1-{1-[4-{5-[5-Amino-1-(S)-methoxycarbonyl]pentylaminocarbonylpentyloxy}benzoyl]-4-piperidinyl}-3,4-dihydrocarbostyril] | 7.36
3 | CC(=O)OCCCOc1ccc(C(=O)N2CCC(N3C(=O)CCc4ccccc43)CC2)cc1 [Example 33, 1-{1-[4-(3-Acetoxypropoxy)benzoyl]-4-piperidinyl}-3,4-dihydrocarbostyril] | 6.35
4 | COC(=O)[C@@H]1CCCN1CCCCCOc1ccc(C(=O)N2CCC(N3C(=O)CCc4ccccc43)CC2)cc1 [Example 239, 1-{1-(4-[5-(2-(S)-Methoxycarbonyl-1-pyrrolidinyl)pentyloxy]benzoyl)-4-piperidinyl}-3,4-dihydrocarbostyril] | 6.82
5 | CC(=O)N[C@H](Cc1c[nH]cn1)C(=O)NCCCOc1ccc(C(=O)N2CCC(N3C(=O)CCc4ccccc43)CC2)cc1 [Example 208, 1-{1-[4-(3-[2-(R)-Acetylamino-2-(4(1H)-imidazolyl)methylacetylamino]propoxy)benzoyl]-4-piperidinyl}-3,4-dihydrocarbostyril] | 7.00
6 | C=CCOc1ccc(C(=O)N2CCC(N3C(=O)CCc4ccccc43)CC2)cc1 [Example 44, 1-[1-(4-Allyloxybenzoyl)-4-piperidinyl]-3,4-dihydrocarbostyril] | 6.52
7 | COc1ccc(C(=O)N2CCC(N3C(=O)CCc4cc(F)ccc43)CC2)c(OC)c1 [Example 79, 6-Fluoro-1-[1-(2,4-dimethoxybenzoyl)-4-piperidinyl]-3,4-dihydrocarbostyril] | 6.30
8 | COC(=O)NCCCCOc1ccc(C(=O)N2CCC(N3C(=O)CCc4ccccc43)CC2)cc1 [Example 27, 1-{1-[4-(4-Methoxycarbonylaminobutoxy)benzoyl]-4-piperidinyl}-3,4-dihydrocarbostyril] | 6.57
9 | NC(=O)[C@@H]1CCCN1CC(O)CCCCOc1ccc(C(=O)N2CCC(N3C(=O)CCc4ccccc43)CC2)cc1 (some centres unmarked) [Example 302] | 7.06
10 | COc1ccc(C(=O)N2CCC(N3C(=O)CCc4ccccc43)CC2)c(OCCOC(C)=O)c1 [Example 69, 1-{1-[2-(2-Acetoxyethoxy)-4-methoxybenzoyl]-4-piperidinyl}-3,4-dihydrocarbostyril] | 6.38
11 | CCSc1ccc(C(=O)N2CCC(N3C(=O)CCc4ccccc43)CC2)cc1 [Example 74, 1-[1-(4-Ethylthiobenzoyl)-4-piperidinyl]-3,4-dihydrocarbostyril] | 6.74
12 | CCOC(=O)CN(C)c1cc(OC)ccc1C(=O)N1CCC(N2C(=O)CCc3ccccc32)CC1 [Example 102, 1-{1-[4-Methoxy-2-(N-methyl-N-ethoxycarbonylmethylamino)benzoyl]-4-piperidinyl}-3,4-dihydrocarbostyril] | 5.96
13 | CC(=O)Nc1ccc(C(=O)NCCCOc2ccc(C(=O)N3CCC(N4C(=O)CCc5ccccc54)CC3)cc2)cc1 [Example 196, 1-(1-[4-(3-(4-Acetylaminobenzoyl)aminopropoxy)benzoyl]-4-piperidinyl}-3,4-dihydrocarbostyril] | 6.77
14 | CC(=O)OCCCCc1ccc(C(=O)N2CCC(N3C(=O)CCc4ccccc43)CC2)cc1 [Example 124, 1-{1-[4-(4-Acetoxybutyl)benzoyl]-4-piperidinyl}-3,4-dihydrocarbostyril] | 6.49
15 | O=C(NCCCOc1ccc(C(=O)N2CCC(N3C(=O)CCc4ccccc43)CC2)cc1)[C@@H]1CCCN1 [Example 224, 1-{1-[4-(3-(S)-Prolylaminopropoxy)benzoyl]-4-piperidinyl]-3,4-dihydrocarbostyril] | 7.03
16 | CN(C)c1ccc(S(=O)(=O)NCCCCCOc2ccc(C(=O)N3CCC(N4C(=O)CCc5ccccc54)CC3)cc2)cc1 [Example 258, 1-{1-(4-[5-(4-Dimethylaminophenylsulfonylamino)pentyloxy]benzoyl)-4-piperidinyl]-3,4-dihydrocarbostyril] | 6.33
17 | O=C(c1ccc(OCCCNCc2ccccc2)cc1)N1CCC(N2C(=O)CCc3ccccc32)CC1 [Example 18, 1-{1-[4-(3-Benzylaminopropoxy)benzoyl]-4-piperidinyl}-3,4-dihydrocarbostyril] | 6.57

Row | SMILES | pIC50
18 | CCNc1cc(OC)ccc1C(=O)N1CCC(N2C(=O)CCc3ccccc32)CC1 [Example 56, 1-[1-(2-Ethylamino-4-methoxybenzoyl)-4-piperidinyl]-3,4-dihydrocarbostyril] | 6.48
19 | O=C(OCCCOc1ccc(C(=O)N2CCC(N3C(=O)CCc4ccccc43)CC2)cc1)c1ccccc1 [Example 94, 1-{1-[4-(3-Benzoyloxypropoxy)benzoyl]-4-piperidinyl}-3,4-dihydrocarbostyril] | 6.20
20 | CCN(CC)CCCCCCOc1ccc(C(=O)N2CCC(N3C(=O)CCc4c(C)cccc43)CC2)cc1 [Example 307, 5-Methyl-1-{1-[4-(6-diethylaminohexyloxy)benzoyl]-4-piperidinyl}-3,4-dihydrocarbostyril] | 7.64
21 | O=C(c1ccc(OCCCCCS(=O)(=O)c2ccccn2)cc1)N1CCC(N2C(=O)CCc3ccccc32)CC1 [Example 287, 1-{1-(4-[5-(2-Pyridylsulfonyl)pentyloxy]benzoyl)-4-piperidinyl}-3,4-dihydrocarbostyril] | 7.00
22 | CC(C)[C@H](NC(=O)CCCCCOc1ccc(C(=O)N2CCC(N3C(=O)CCc4ccccc43)CC2)cc1)C(N)=O [Example 147, 1-{1-[4-{5-[1-(S)-Carbamoyl-2-methyl]propylaminocarbonylpentyloxy}benzoyl]-4-piperidinyl}-3,4-dihydrocarbostyril] | 7.01
23 | O=C(c1ccc(OCCCCCCN2CCCC2)cc1)N1CCC(N2C(=O)CCc3ccccc32)CC1 [Example 214, 1-{1-[4-(6-(1-Pyrrolidinyl)hexyloxy)benzoyl]-4-piperidinyl}-3,4-dihydrocarbostyril.] | 7.24
24 | CNC(=O)CCCOc1ccc(C(=O)N2CCC(N3C(=O)CCc4ccccc43)CC2)cc1 [Example 121, 1-{1-[4-(3-Methylaminocarbonylpropoxy)benzoyl]-4-piperidinyl}-3,4-dihydrocarbostyril] | 6.34
25 | O=C(CCCCCOc1ccc(C(=O)N2CCC(N3C(=O)CCc4ccccc43)CC2)cc1)N1CCN(Cc2ccccc2)CC1 [Example 269, 1-{1-(4-[5-(4-Benzyl-1-piperazinylcarbonyl)pentyloxy]benzoyl)-4-piperidinyl}-3,4-dihydrocarbostyril] | 6.80
26 | CCSc1nccn1-c1ccc(C(=O)N2CCC(N3C(=O)CCc4ccccc43)CC2)cc1 [Example 89, 1-{1-[4-(2-Ethylthioimidazol-1-yl)benzoyl]-4-piperidinyl)-3,4-dihydrocarbostyril] | 5.80
27 | Nc1ccc(S(=O)(=O)CCCCCOc2ccc(C(=O)N3CCC(N4C(=O)CCc5ccccc54)CC3)cc2)cc1 [Example 286, 1-{1-(4-[5-(4-Aminophenylsulfonyl)pentyloxy]benzoyl)-4-piperidinyl}-3,4-dihydrocarbostyril] | 6.82
28 | NC(=O)CCCCCOc1ccc(C(=O)N2CCC(N3C(=O)CCc4ccccc43)CC2)cc1 [Example 12, 1-{1-[4-(5-Carbamoylpentyloxy)benzoyl]-4-piperidinyl}-3,4-dihydrocarbostyril] | 6.64
29 | CS(=O)(=O)NCCCCCCOc1ccc(C(=O)N2CCC(N3C(=O)CCc4ccccc43)CC2)cc1 [Example 142, 1-{1-[4-(6-Methylsulfonylaminohexyloxy)benzoyl]-4-piperidinyl}-3,4-dihydrocarbostyril] | 7.00
30 | CCSCCCOc1ccc(C(=O)N2CCC(N3C(=O)CCc4ccccc43)CC2)cc1 [Example 95, 1-{1-[4-(3-Ethylthiopropoxy)benzoyl]-4-piperidinyl}-3,4-dihydrocarbostyril] | 6.02
31 | O=C(CN1CCOCC1)NCCCCCOc1ccc(C(=O)N2CCC(N3C(=O)CCc4ccccc43)CC2)cc1 [Example 253, 1-{1-(4-[5-(2-Morpholinoacetylamino)pentyloxy]benzoyl)-4-piperidinyl}-3,4-dihydrocarbostyril] | 6.74
32 | CC(=O)N[C@@H](CCC(N)=O)C(=O)NCCCOc1ccc(C(=O)N2CCC(N3C(=O)CCc4ccccc43)CC2)cc1 [Example 195, 1-(1-[4-(3-(α-N-Acetyl-(L)-glutaminyl)aminopropoxy)benzoyl]-4-piperidinyl}-3,4-dihydrocarbostyril] | 6.72
33 | CN(C)CCCNC(=O)CCCCCOc1ccc(C(=O)N2CCC(N3C(=O)CCc4ccccc43)CC2)cc1 [Example 197, 1-(1-[4-(5-(3-Dimethylaminopropyl)aminocarbonylpentyloxy)benzoyl]-4-piperidinyl}-3,4-dihydrocarbostyril] | 7.46
34 | CC(=O)OCCN(CCCCCOc1ccc(C(=O)N2CCC(N3C(=O)CCc4ccccc43)CC2)cc1)CCOC(C)=O [Example 249, 1-{1-(4-[5-(N,N-Di(2-acetoxyethyl)amino)pentyloxy]benzoyl)-4-piperidinyl}-3,4-dihydrocarbostyril] | 7.35

Same assay, conditions: [H]3-Arg-vasopressin 2×10^-10 M, rat liver plasma membrane, 37° C., 10 minutes, pH 8.0

Row | SMILES | pIC50
35 | CN(CC(O)CCCCOc1ccc(C(=O)N2CCC(N3C(=O)CCc4ccccc43)CC2)cc1)CC(O)c1ccccc1 (centres unmarked) [Example 219, 1-{1-[4-(5-Hydroxy-6-[N-methyl-N-(2-hydroxy-4-phenylethyl)amino]hexyloxy)benzoyl]-4-piperidinyl}-3,4-dihydrocarbostyril] | 7.22

Same assay, conditions: [H]3-Arg-vasopressin 2×10^-10 M, rat liver plasma membrane, 37° C., 10 minutes, pH 8.0; read-out: IC50

Row | SMILES | pIC50
36 | COc1ccc(N(Cc2ccccc2)C(=O)c2ccc(N3C(=O)CCc4ccccc43)cc2)cc1 [Example 85] | 5.52
37 | COc1cc(SC)ccc1C(=O)N1CCC(N2C(=O)CCc3ccccc32)C1 (centres unmarked) [Example 84, 1-[1-(2-Methoxy-4-methylthiobenzoyl)-3-pyrrolidinyl]-3,4-dihydrocarbostyril] | 5.15

Same assay, conditions: read-out: IC50

Row | SMILES | pIC50
38 | CCOc1ccc(C(=O)N2CCC(n3c(=O)ccc4ccc(F)cc43)CC2)c(OC)c1 [Example 151, 1-[1-(2-Methoxy-4-ethoxybenzoyl)-4-piperidinyl]-7-fluorocarbostyril] | 6.80

Source: patent US5436254A, “Carbostyril derivatives” (Otsuka Pharmaceutical Company, Ltd., priority 1989, dated 1995)
